Test system: mollusks
Test: Exposure of mollusks in the water-monitoring system to toxicant-loaded water; shell gape and Degree of Alarm (DOA)
Type: in vivo
Protocol: Further calibration of the system is performed after one or more mollusk chambers are properly installed. The digital circuitry or computer 39 then monitors the gape of the mollusk during approximately the first three days after installation. From the gape values derived during this period, the computer derives a natural maximum gape value for the individual mollusk. Subsequent calculations based on output from the mollusk chamber 15 are based on the percentage of gape, i.e., the percentage of the maximum gape output value that the presently detected gape output value represents.
When the system 3 contains a number of mollusk chambers 15, the individual mollusk percentage gape data for all of the mollusks of the system is totaled, and the average percentage gape value calculated periodically per sampling interval by computer 38. This mean data value Gi is the variable used as the mollusk output data for determining if toxicants are present in the water being screened.
In the present specification, Gi means the current average mollusk gape data, Gi−1 means the most recent earlier mollusk output value, Gi−2 the next earlier mollusk output variable, etc. The oldest of the gape values is Gi−n+1. Preferably, the set of data values Gi−n+1 to Gi are stored in a FIFO (first-in, first-out) stack data structure in the computer doing the analysis. The stack acts as a shift register, shifting earlier data values as the new data value Gi is acquired. Preferably the value of n is 30, and the data values G are acquired every half-second.
A variable referred to as Degree of Alarm (“DOA”) is derived from the mean mollusk output data using one of a variety of analysis formulae or methods, ranging from simpler models to more complex systems based on neural net technology that can identify the particular toxicant types that are present in the water and causing a reaction by the mollusks.
According to an aspect of the invention, the variance over time of the gape values is one of the best statistical indicators of the pumping of the mollusk. By the term variance, what is meant is a determination of the variability of the gape values from a mean value, which may be determined or expressed using a variety of functions. Particularly preferred, however, is the classical calculation of variance as: [formula]
wherein V is the mean variance in gape over a recent period of time, preferably 30 seconds, R is the mean regression of the gape over the period (regression herein meaning the slope of the best-fit line through the data values of the time period). M may be the traveling mean as defined above, or may be the mean gape taken over another longer period, preferably about one hour.
An implementation of this method is shown by the graphs of FIGS. 7 to 10. Water being screened by a system as described previously was loaded with sulphuric acid, resulting in a drop in pH as shown in the graph of FIG. 7.
An implementation of such a DOA method using a Logistic calculation, with a variance factor added for variances over 50, is illustrated by the graphs of FIGS. 12 to 16.
In this example, a system as in Example 3 was used, only the toxicant introduced was copper (as aqueous CuSO4), as shown in FIG. 17.

[Cl-].[Na+] [chloride, NaCl]
DOA output (Logistic calculation with variance factor for variances over 50, at 0.5 hours, chloride concentration still relatively low): greater than 5 | raw gape data, decreasing gape over time (gradually increasing concentration of chloride (as aqueous NaCl)): less than 40 % of normal maximum gape

O=S(=O)([O-])[O-].[Cu+2] [copper, CuSO4]
DOA values (Logistic calculation with variance factor, out of a possible 10, between 0.5 and 1.0 hours, copper concentration still relatively low): exceed 8 | gape when DOA exceeded 8 (copper (as aqueous CuSO4), between 0.5 and 1.0 hours): 50%

O=S(=O)(O)O [sulphuric acid]
DOA values (spike) (DOA=(V·|R|)/M, water loaded with sulphuric acid, before 200 minutes): greater than 100 | average percentage gape of the mollusks (water loaded with sulphuric acid (drop in pH), shortly after 200 minutes): less than 10 % of the normal maximum | percentage gape when variance spikes (water loaded with sulphuric acid, variance over ten most recent values spikes shortly before 200 minutes): 40%

— patent US20040049353A1, “System and method for monitoring water using bivalve mollusks” (priority 2003, published 2004)
